pIC50: −log10 of the molar value. Like-named read-outs stand apart in the source and are kept apart here. Positions of bridges follow the written chain, without caps; N, C: chain ends. Non-standard residues stand in square brackets, D forms with d. Residues, ends and D or L forms follow the SMILES beside them. Trp(1-Me) = Cn1cc(C[C@H](N)C(=O)O)c2ccccc21; Phg = N[C@H](C(=O)O)c1ccccc1
Legend:
Assay in all cases: cell-based
hNav1.3 = hNav1.3 (Homo sapiens, UniProt Q9NY46); details: IonWorks Quattro, read-out: IWQ Use Nav1.3
hNav1.7 = hNav1.7 (Homo sapiens, UniProt Q15858); type: cell-based
hNav1.5 = hNav1.5 (Homo sapiens, UniProt Q14524); details: for pIC50: IonWorks Quattro, read-out: IWQ Use Nav1.5
[1] = IonWorks Quattro, use-dependent block, hNav1.7, read-out: IWQ Use Nav1.7

Sequence of hNav1.5 (Q14524 whole entry, looked up): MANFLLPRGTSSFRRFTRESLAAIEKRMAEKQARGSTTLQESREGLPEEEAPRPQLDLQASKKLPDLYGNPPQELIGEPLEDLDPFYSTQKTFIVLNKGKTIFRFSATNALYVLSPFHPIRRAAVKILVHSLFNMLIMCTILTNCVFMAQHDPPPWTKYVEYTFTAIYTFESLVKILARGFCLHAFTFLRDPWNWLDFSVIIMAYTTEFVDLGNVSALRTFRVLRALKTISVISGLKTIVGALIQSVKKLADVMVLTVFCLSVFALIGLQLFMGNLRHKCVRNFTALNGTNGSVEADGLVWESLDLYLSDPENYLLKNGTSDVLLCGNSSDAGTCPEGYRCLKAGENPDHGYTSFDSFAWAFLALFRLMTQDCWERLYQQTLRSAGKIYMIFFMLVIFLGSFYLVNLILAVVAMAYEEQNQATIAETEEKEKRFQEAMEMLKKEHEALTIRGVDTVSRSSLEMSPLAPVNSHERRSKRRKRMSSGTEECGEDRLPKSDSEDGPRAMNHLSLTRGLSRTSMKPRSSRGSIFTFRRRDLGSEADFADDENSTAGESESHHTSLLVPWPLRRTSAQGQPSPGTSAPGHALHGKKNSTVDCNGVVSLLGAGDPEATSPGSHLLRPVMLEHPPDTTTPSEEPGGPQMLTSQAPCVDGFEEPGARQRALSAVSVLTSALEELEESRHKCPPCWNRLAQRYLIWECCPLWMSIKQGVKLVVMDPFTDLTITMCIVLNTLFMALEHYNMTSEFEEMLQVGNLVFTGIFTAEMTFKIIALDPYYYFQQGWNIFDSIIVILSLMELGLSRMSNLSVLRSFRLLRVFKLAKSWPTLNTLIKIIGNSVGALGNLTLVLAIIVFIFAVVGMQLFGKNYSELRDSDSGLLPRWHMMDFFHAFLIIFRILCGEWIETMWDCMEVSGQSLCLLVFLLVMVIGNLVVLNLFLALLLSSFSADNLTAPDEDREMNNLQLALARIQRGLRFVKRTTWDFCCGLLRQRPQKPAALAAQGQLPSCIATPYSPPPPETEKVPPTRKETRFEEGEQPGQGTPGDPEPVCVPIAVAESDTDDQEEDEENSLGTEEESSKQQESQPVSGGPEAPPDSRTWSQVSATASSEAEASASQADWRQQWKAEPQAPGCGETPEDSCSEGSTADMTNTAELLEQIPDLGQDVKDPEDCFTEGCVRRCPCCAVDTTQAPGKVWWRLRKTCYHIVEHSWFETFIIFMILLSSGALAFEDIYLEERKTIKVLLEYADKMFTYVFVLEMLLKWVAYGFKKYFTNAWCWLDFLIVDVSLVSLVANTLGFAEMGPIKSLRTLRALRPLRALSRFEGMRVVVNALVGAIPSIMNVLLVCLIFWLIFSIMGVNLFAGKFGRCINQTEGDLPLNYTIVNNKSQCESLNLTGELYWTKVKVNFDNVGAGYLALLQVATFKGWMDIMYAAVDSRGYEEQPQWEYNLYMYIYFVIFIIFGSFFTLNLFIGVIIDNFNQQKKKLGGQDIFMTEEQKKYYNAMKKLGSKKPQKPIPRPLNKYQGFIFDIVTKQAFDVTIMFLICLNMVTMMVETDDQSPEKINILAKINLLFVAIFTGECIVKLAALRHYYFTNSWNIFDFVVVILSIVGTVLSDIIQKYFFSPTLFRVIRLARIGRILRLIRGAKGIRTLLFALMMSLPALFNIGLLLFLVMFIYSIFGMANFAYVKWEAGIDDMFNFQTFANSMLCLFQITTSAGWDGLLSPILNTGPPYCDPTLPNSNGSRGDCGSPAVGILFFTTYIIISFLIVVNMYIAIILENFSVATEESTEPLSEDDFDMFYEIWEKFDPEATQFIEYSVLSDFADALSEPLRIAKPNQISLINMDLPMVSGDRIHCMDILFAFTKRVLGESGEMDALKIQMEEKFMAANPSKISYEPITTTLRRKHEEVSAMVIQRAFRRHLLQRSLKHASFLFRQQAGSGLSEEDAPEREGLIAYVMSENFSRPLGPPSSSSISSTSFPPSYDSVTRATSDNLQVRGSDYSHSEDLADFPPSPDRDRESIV
Sequence of hNav1.7 (Q15858 whole entry, looked up): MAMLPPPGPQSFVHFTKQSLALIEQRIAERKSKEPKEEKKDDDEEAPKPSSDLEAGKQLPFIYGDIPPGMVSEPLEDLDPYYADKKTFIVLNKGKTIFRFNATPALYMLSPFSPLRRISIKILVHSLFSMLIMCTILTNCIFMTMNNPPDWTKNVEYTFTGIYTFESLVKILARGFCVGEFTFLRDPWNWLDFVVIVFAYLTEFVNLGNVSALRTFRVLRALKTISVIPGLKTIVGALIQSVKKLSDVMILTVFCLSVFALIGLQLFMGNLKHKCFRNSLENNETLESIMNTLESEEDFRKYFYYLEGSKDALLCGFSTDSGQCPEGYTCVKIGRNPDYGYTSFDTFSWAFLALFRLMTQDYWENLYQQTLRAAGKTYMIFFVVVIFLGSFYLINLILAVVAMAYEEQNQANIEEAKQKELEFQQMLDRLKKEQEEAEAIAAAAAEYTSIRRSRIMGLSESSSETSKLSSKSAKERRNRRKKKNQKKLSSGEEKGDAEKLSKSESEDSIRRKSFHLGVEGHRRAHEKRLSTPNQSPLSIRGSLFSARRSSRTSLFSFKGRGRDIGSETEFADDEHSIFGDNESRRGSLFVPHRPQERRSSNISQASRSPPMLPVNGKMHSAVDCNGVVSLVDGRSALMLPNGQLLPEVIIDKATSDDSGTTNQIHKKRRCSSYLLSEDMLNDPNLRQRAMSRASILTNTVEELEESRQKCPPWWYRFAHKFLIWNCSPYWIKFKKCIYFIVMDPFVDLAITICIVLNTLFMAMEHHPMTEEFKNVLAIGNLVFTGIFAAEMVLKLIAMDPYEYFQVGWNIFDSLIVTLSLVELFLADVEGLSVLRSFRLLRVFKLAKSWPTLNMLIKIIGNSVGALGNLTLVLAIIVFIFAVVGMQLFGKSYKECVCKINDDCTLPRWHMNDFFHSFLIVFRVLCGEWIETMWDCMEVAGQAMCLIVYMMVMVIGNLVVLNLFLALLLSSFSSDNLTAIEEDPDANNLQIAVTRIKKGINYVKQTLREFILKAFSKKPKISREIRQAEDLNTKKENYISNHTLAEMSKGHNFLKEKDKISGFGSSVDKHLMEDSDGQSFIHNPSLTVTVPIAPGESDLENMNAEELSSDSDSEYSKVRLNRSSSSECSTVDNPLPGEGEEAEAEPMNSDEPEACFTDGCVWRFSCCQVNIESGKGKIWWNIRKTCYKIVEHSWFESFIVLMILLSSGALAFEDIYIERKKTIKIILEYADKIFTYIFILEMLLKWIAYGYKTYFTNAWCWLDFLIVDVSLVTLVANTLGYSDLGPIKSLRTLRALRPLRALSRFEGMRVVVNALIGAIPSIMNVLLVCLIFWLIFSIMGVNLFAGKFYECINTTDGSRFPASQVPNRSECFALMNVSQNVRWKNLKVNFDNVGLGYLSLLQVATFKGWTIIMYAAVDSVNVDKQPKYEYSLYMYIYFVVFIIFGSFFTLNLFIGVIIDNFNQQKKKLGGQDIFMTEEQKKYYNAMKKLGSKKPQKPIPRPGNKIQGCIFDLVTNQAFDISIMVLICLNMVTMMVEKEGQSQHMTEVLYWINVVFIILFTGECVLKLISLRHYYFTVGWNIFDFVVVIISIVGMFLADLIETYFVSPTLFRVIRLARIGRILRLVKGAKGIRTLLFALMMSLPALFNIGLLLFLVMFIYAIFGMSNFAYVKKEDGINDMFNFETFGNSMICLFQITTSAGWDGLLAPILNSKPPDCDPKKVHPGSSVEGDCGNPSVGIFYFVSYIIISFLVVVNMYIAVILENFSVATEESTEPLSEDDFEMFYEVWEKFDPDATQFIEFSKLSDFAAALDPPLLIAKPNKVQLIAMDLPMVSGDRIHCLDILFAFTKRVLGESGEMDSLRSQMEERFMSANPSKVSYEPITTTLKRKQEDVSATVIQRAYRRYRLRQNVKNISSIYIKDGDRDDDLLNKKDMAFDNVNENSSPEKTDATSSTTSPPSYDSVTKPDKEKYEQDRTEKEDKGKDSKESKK

Work on CC[C@H](C)[C@@H]1NC(=O)[C@@H]2CSSC[C@@H]3NC(=O)[C@H](C(C)C)NC(=O)[C@H](CC(C)C)NC(=O)[C@H](CC(N)=O)NC(=O)[C@@H]4CCCN4C(=O)[C@H](CCCNC(=N)N)NC(=O)[C@H](CSSC[C@H](NC(=O)[C@@H](N)CC(=O)O)C(=O)N[C@@H](CC(C)C)C(=O)NCC(=O)N[C@@H](Cc4ccccc4)C(=O)N[C@@H](CCSC)C(=O)N[C@@H](CCCNC(=N)N)C(=O)N[C@@H](CCCCN)C(=O)N2)NC(=O)[C@H](CSSC[C@@H](C(=O)N[C@@H](CCCCN)C(=O)N[C@@H](Cc2ccc(O)cc2)C(=O)N[C@H](C(=O)N[C@@H](Cc2ccccc2)C(N)=O)C(C)C)NC(=O)[C@H](Cc2c[nH]c4ccccc24)NC(=O)[C@H](CCCCN)NC(=O)[C@H](Cc2c[nH]cn2)NC(=O)[C@H]([C@@H](C)O)NC(=O)[C@H](CCCNC(=N)N)NC(=O)[C@H](CO)NC3=O)NC(=O)[C@H](CCC(=O)O)NC(=O)[C@H](CC(=O)O)NC(=O)[C@H](CC(N)=O)NC(=O)[C@H](CC(=O)O)NC(=O)[C@@H]2CCCN2C1=O [compound 28] (H-DCLGFMRKCIPDNDECCRPNLVCSRTHKWCKYVF-NH2; disulfide 2-17, 9-23, 16-30) yielded a pIC50 (hNav1.3; Use) of 6.31, a pIC50 (hNav1.7) of 6.23 and a pIC50 (hNav1.5; Use) of 4.92.

For CC[C@H](C)[C@@H]1NC(=O)[C@@H]2CSSC[C@@H]3NC(=O)[C@H](C(C)C)NC(=O)[C@H](CC(C)C)NC(=O)[C@H](CC(N)=O)NC(=O)[C@@H]4CCCN4C(=O)[C@H](CCCNC(=N)N)NC(=O)[C@H](CSSC[C@H](NC(=O)[C@@H](N)CC(=O)O)C(=O)N[C@@H](CC(C)C)C(=O)NCC(=O)N[C@@H](Cc4ccccc4)C(=O)N[C@@H](CCSC)C(=O)N[C@@H](CCCNC(=N)N)C(=O)N[C@@H](CCCCN)C(=O)N2)NC(=O)[C@H](CSSC[C@@H](C(=O)N[C@@H](CCCCN)C(=O)N[C@H](C(=O)N[C@H](C(=O)N[C@@H](Cc2ccccc2)C(N)=O)C(C)C)c2ccccc2)NC(=O)[C@H](Cc2c[nH]c4ccccc24)NC(=O)[C@H](CCCCN)NC(=O)[C@H](Cc2c[nH]cn2)NC(=O)[C@H]([C@@H](C)O)NC(=O)[C@H](CCCNC(=N)N)NC(=O)[C@H](CO)NC3=O)NC(=O)[C@H](CCCCN)NC(=O)[C@H](CC(=O)O)NC(=O)[C@H](CC(N)=O)NC(=O)[C@H](CC(=O)O)NC(=O)[C@@H]2CCCN2C1=O [compound 374] (H-DCLGFMRKCIPDNDKCCRPNLVCSRTHKWCK[Phg]VF-NH2; disulfide 2-17, 9-23, 16-30), the pIC50 (hNav1.3; Table 25, use, […]) was 7.00, the pIC50 (hNav1.7; Table 25, IonWorks Quattro, use, […], read-out: IWQ Use Nav1.7) was 6.85 and the pIC50 (hNav1.5; Table 25, use, […]) was 5.15.

Work on CC[C@H](C)[C@@H]1NC(=O)[C@@H]2CSSC[C@@H]3NC(=O)[C@H](C(C)C)NC(=O)[C@H](CC(C)C)NC(=O)[C@H](CC(N)=O)NC(=O)[C@@H]4CCCN4C(=O)[C@H](CCCNC(=N)N)NC(=O)[C@H](CSSC[C@H](NC(=O)[C@@H](N)CC(=O)O)C(=O)N[C@@H](CC(C)C)C(=O)NCC(=O)N[C@@H](Cc4ccccc4)C(=O)N[C@@H](CCSC)C(=O)N[C@@H](CCCNC(=N)N)C(=O)N[C@@H](CCCCN)C(=O)N2)NC(=O)[C@H](CSSC[C@@H](C(=O)N[C@@H](CCCCN)C(=O)N[C@@H](Cc2ccc(O)cc2)C(=O)N[C@H](C(=O)N[C@@H](Cc2ccccc2)C(=O)N[C@@H](C)C(N)=O)C(C)C)NC(=O)[C@H](Cc2c[nH]c4ccccc24)NC(=O)[C@H](CCCCN)NC(=O)[C@H](Cc2c[nH]cn2)NC(=O)[C@H]([C@@H](C)O)NC(=O)[C@H](CCCNC(=N)N)NC(=O)[C@H](CO)NC3=O)NC(=O)[C@H](CCCCN)NC(=O)[C@H](CC(=O)O)NC(=O)[C@H](CC(N)=O)NC(=O)[C@H](CC(=O)O)NC(=O)[C@@H]2CCCN2C1=O [compound 16] yielded a pIC50 (hNav1.3; use-dependent, […]) of 6.59, a pIC50 (hNav1.7; IonWorks Quattro, use-dependent, […], read-out: IWQ Use Nav1.7 (μm)) of 6.39 and a pIC50 (hNav1.5; use-dependent, […]) of 4.85.

CC[C@H](C)[C@@H]1NC(=O)[C@@H]2CSSC[C@@H]3NC(=O)[C@H](Cc4c[nH]c5ccccc45)NC(=O)[C@H](CC(C)C)NC(=O)[C@H](CC(N)=O)NC(=O)[C@@H]4CCCN4C(=O)[C@H](CCCNC(=N)N)NC(=O)[C@H](CSSC[C@H](NC(=O)[C@@H](N)CC(=O)O)C(=O)N[C@@H](CC(C)C)C(=O)NCC(=O)N[C@@H](Cc4ccccc4)C(=O)N[C@@H](CCSC)C(=O)N[C@@H](CCCNC(=N)N)C(=O)N[C@@H](CCCCN)C(=O)N2)NC(=O)[C@H](CSSC[C@@H](C(=O)N[C@@H](CCCCN)C(=O)N[C@@H](Cc2ccc(O)cc2)C(=O)N[C@H](C(=O)N[C@@H](Cc2ccccc2)C(N)=O)C(C)C)NC(=O)[C@H](Cc2c[nH]c4ccccc24)NC(=O)[C@H](CCCCN)NC(=O)[C@H](Cc2cnc[nH]2)NC(=O)[C@H]([C@@H](C)O)NC(=O)[C@H](CCCNC(=N)N)NC(=O)[C@H](CO)NC3=O)NC(=O)[C@H](CCCCN)NC(=O)[C@H](CC(=O)O)NC(=O)[C@H](CC(N)=O)NC(=O)[C@H](CC(=O)O)NC(=O)[C@@H]2CCCN2C1=O [compound 177] (H-DCLGFMRKCIPDNDKCCRPNLWCSRTHKWCKYVF-NH2; disulfide 2-17, 9-23, 16-30) was tested, and the pIC50 (hNav1.3; Use) was 7.22, the pIC50 (hNav1.7) was 7.52 and the IC50 (hNav1.5; IWQ Use Nav1.5 (μM)) was 8.02 µM.

In the case of CC[C@H](C)[C@@H]1NC(=O)[C@@H]2CSSC[C@@H]3NC(=O)[C@H](C(C)C)NC(=O)[C@H](CC(C)C)NC(=O)[C@H](CC(N)=O)NC(=O)[C@@H]4CCCN4C(=O)[C@H](CCCNC(=N)N)NC(=O)[C@H](CSSC[C@H](NC(=O)[C@@H](N)CC(=O)O)C(=O)N[C@@H](CC(C)C)C(=O)NCC(=O)N[C@@H](Cc4ccccc4)C(=O)N[C@@H](CCSC)C(=O)N[C@@H](CCCNC(=N)N)C(=O)N[C@@H](CCCCN)C(=O)N2)NC(=O)[C@H](CSSC[C@@H](C(=O)N[C@@H](CCCCN)C(=O)N[C@@H](Cc2c[nH]c4ccccc24)C(=O)N[C@H](C(=O)N[C@@H](Cc2ccccc2)C(N)=O)C(C)C)NC(=O)[C@H](Cc2c[nH]c4ccccc24)NC(=O)[C@H](CCCNC(=N)N)NC(=O)[C@H](Cc2c[nH]cn2)NC(=O)[C@H]([C@@H](C)O)NC(=O)[C@H](CCCNC(=N)N)NC(=O)[C@H](CO)NC3=O)NC(=O)[C@H](CCCCN)NC(=O)[C@H](CC(=O)O)NC(=O)[C@H](CC(N)=O)NC(=O)[C@H](CC(=O)O)NC(=O)[C@@H]2CCCN2C1=O [compound 443] (H-DCLGFMRKCIPDNDKCCRPNLVCSRTHRWCKWVF-NH2; disulfide 2-17, 9-23, 16-30), the pIC50 (hNav1.3; use-dependent block, hNav1.3) was 7.15, the pIC50 (hNav1.7; [1]) was 7.15 and the pIC50 (hNav1.5; use-dependent block, hNav1.5) was 5.31.

CC[C@H](C)[C@@H]1NC(=O)[C@@H]2CSSC[C@@H]3NC(=O)[C@H](C(C)C)NC(=O)[C@H](CC(C)C)NC(=O)[C@H](CC(N)=O)NC(=O)[C@@H]4CCCN4C(=O)[C@H](CCCNC(=N)N)NC(=O)[C@H](CSSC[C@H](NC(=O)[C@@H](N)CC(=O)O)C(=O)N[C@@H](CC(C)C)C(=O)NCC(=O)N[C@@H](Cc4ccccc4)C(=O)N[C@@H](CCSC)C(=O)N[C@@H](CCCNC(=N)N)C(=O)N[C@@H](CCCNC(=N)N)C(=O)N2)NC(=O)[C@H](CSSC[C@@H](C(=O)N[C@@H](CCCCN)C(=O)N[C@@H](Cc2ccc(O)cc2)C(=O)N[C@H](C(=O)N[C@@H](Cc2ccccc2)C(N)=O)C(C)C)NC(=O)[C@H](Cc2c[nH]c4ccccc24)NC(=O)[C@H](CCCCN)NC(=O)[C@H](Cc2cnc[nH]2)NC(=O)[C@H]([C@@H](C)O)NC(=O)[C@H](CCCNC(=N)N)NC(=O)[C@H](CO)NC3=O)NC(=O)[C@H](CCCCN)NC(=O)[C@H](CC(=O)O)NC(=O)[C@H](CC(N)=O)NC(=O)[C@H](CC(=O)O)NC(=O)[C@@H]2CCCN2C1=O [[Arg8]GpTx-1(1-34)] (H-DCLGFMRRCIPDNDKCCRPNLVCSRTHKWCKYVF-NH2; disulfide 2-17, 9-23, 16-30) gave a pIC50 (hNav1.3; use-dependent block, hNav1.3) of 6.92, a pIC50 (hNav1.7; [1]) of 6.85 and a pIC50 (hNav1.5; use-dependent block, hNav1.5) of 4.86.

CC[C@H](C)[C@@H]1NC(=O)[C@@H]2CSSC[C@@H]3NC(=O)[C@H](C(C)C)NC(=O)[C@H](CC(C)C)NC(=O)[C@H](CC(N)=O)NC(=O)[C@@H]4CCCN4C(=O)[C@H](CCCNC(=N)N)NC(=O)[C@H](CSSC[C@H](NC(=O)[C@@H](N)CC(=O)O)C(=O)N[C@@H](CC(C)C)C(=O)NCC(=O)N[C@@H](Cc4ccccc4)C(=O)N[C@@H](CCSC)C(=O)N[C@@H](CCCNC(=N)N)C(=O)N[C@@H](CCCCN)C(=O)N2)NC(=O)[C@H](CSSC[C@@H](C(=O)N[C@@H](CCCCN)C(=O)N[C@@H](Cc2ccc(O)cc2)C(=O)N[C@@H](Cc2cn(C)c4ccccc24)C(=O)N[C@@H](Cc2ccccc2)C(N)=O)NC(=O)[C@H](Cc2c[nH]c4ccccc24)NC(=O)[C@H](CCCCN)NC(=O)[C@H](Cc2c[nH]cn2)NC(=O)[C@H]([C@@H](C)O)NC(=O)[C@H](CCCNC(=N)N)NC(=O)[C@H](CO)NC3=O)NC(=O)[C@H](CCCCN)NC(=O)[C@H](CC(=O)O)NC(=O)[C@H](CC(N)=O)NC(=O)[C@H](CC(=O)O)NC(=O)[C@@H]2CCCN2C1=O [compound 250] (H-DCLGFMRKCIPDNDKCCRPNLVCSRTHKWCKY[Trp(1-Me)]F-NH2; disulfide 2-17, 9-23, 16-30) showed a pIC50 (hNav1.3; Table 26, use, […]) of 7.15, a pIC50 (hNav1.7; Table 26, IonWorks Quattro, use, […], read-out: IWQ Use Nav1.7) of 7.05 and a pIC50 (hNav1.5; Table 26, use, […]) of 5.27.

Source: patent US9340590B2 (priority 2011, dated 2016)
